Target: T1, hMCHR (MCH receptor) (Homo sapiens, UniProt Q99705)
T1 construct: (or internally produced); host or cells: CHO (Chinese hamster ovary) cells, membrane preparation
Assay: MCH Assay PCOP Protocol ([125I]-MCH SPA binding to hMCHR-CHO membranes);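 further: A 0.4–50 nM B 51–500 nM C 501–2500 nM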
Settings: [125I]-MCH binding to hMCHR-CHO membranes; class symbols for ranges of Ki; read-out: Activity (Ki range)
Procedure, shortened: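 SPA binding with 10 μg hMCHR-CHO membranes and WGA-SPA beads in 25 mM HEPES pH 7.4, 10 mM NaCl, 10 mM MgCl2, 5 mM MnCl2, 0.1% BSA.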

T1 sequence (Q99705 whole entry): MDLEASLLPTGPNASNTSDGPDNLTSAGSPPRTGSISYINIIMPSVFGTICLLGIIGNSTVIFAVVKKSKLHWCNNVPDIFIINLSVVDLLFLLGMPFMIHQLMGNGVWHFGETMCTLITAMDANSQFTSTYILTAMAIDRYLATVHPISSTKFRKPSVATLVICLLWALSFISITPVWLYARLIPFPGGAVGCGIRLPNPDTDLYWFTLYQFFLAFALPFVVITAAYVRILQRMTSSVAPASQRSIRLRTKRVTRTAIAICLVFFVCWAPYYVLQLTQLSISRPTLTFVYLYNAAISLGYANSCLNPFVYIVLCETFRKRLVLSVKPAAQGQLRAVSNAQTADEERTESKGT

| Ki [nM] | SMILES |
| --- | --- |
| 51 to 500 | O=C(NCC(CCNC1CCCC1)c1ccc(Cl)cc1)Nc1cc(Cl)cc(Cl)c1 (centres unmarked) [Example 267] |
| 51 to 500 | Cc1ccc(C(CCNC2CCCCC2)CNC(=O)Nc2cc(Cl)cc(Cl)c2)cc1 (centres unmarked) [Example 268] |
| 51 to 500 | Cc1ccc(C(CCNC2CCCC2)CNC(=O)Nc2cc(C(F)(F)F)cc(C(F)(F)F)c2)cc1 (centres unmarked) [Example 269] |
| 51 to 500 | Cc1ccc(C(CCNC2CCCCC2)CNC(=O)Nc2cc(C(F)(F)F)cc(C(F)(F)F)c2)cc1 (centres unmarked) [Example 270] |
| 51 to 500 | Cc1ccc(C(CCNC2CCCC2)CNC(=O)Nc2cc(Cl)cc(Cl)c2)cc1 (centres unmarked) [Example 271] |
| 51 to 500 | Cc1ccc(C(CCNC2CCC2)CNC(=O)Nc2cc(Cl)cc(Cl)c2)cc1 (centres unmarked) [Example 272] |
| 51 to 500 | O=C(NCC(CCNC1CCC1)c1ccc(Cl)cc1)Nc1cc(Cl)cc(Cl)c1 (centres unmarked) [Example 273] |
| 51 to 500 | Cc1ccc(C(CCNC2CCC2)CNC(=O)Nc2cc(C(F)(F)F)cc(C(F)(F)F)c2)cc1 (centres unmarked) [Example 274] |
| 501 to 2500 | Cc1ccc(C(CCNc2c(C)noc2C)CNC(=O)Nc2cc(Cl)cc(Cl)c2)cc1 (centres unmarked) [Example 275] |
| 51 to 500 | CCOC(=O)N1CCC(NCCC(CNC(=O)Nc2cc(Cl)cc(Cl)c2)c2ccc(Cl)c(Cl)c2)CC1 (centres unmarked) [Example 277] |
| 51 to 500 | O=C(NCC(CCNCCc1ccc(O)cc1)c1ccc(Cl)c(Cl)c1)Nc1ccc(Cl)c(Cl)c1 (centres unmarked) [Example 278] |
| 51 to 500 | O=C(NCC(CCNC1CCCC1)c1ccc(Cl)c(Cl)c1)Nc1ccc(Cl)c(Cl)c1 (centres unmarked) [Example 279] |
| 51 to 500 | O=C(NCC(CCNC1CCCC1)c1ccc(Cl)c(Cl)c1)Nc1cc(Cl)cc(Cl)c1 (centres unmarked) [Example 280] |
| 51 to 500 | CCOC(=O)N1CCC(NCCC(CNC(=O)Nc2cccc(C(F)(F)F)c2)c2ccc(Cl)c(Cl)c2)CC1 (centres unmarked) [Example 281] |
| 51 to 500 | O=C(NCC(CCNC1CCC1)c1ccc(Cl)c(Cl)c1)Nc1ccc(Cl)c(Cl)c1 (centres unmarked) [Example 282] |
| 51 to 500 | O=C(NCC(CCNC1CCC1)c1ccc(Cl)c(Cl)c1)Nc1cccc(C(F)(F)F)c1 (centres unmarked) [Example 283] |
| 51 to 500 | Cn1cnc(CCNCCC(CNC(=O)Nc2ccc(Cl)c(Cl)c2)c2ccc(Cl)c(Cl)c2)c1 (centres unmarked) [Example 284] |
| 51 to 500 | O=C(NCC(CCN1CCC(N2CCCCC2)CC1)c1ccc(Cl)c(Cl)c1)Nc1ccc([N+](=O)[O-])c(Cl)c1 (centres unmarked) [Example 286] |
| 51 to 500 | O=C(NCC(CCN1CCCC1)c1ccc(Cl)c(Cl)c1)Nc1ccc(Cl)c(Cl)c1 (centres unmarked) [Example 287] |
| 51 to 500 | CCCN(CC)CCC(CNC(=O)Nc1cccc(C(F)(F)F)c1)c1ccc(Cl)c(Cl)c1 (centres unmarked) [Example 288] |
| 51 to 500 | CCCN(CC)CCC(CNC(=O)Nc1ccc(Cl)c(Cl)c1)c1ccc(Cl)c(Cl)c1 (centres unmarked) [Example 289] |
| 51 to 500 | O=C(NCC(CCNC1CCCC1)c1ccc(Cl)c(Cl)c1)Nc1cccc(C(F)(F)F)c1 (centres unmarked) [Example 290] |
| 51 to 500 | CN(C)C1CCN(CCC(CNC(=O)Nc2ccc(Cl)c(Cl)c2)c2ccc(Cl)c(Cl)c2)C1 (centres unmarked) [Example 291] |
| 51 to 500 | CN(C)C1CCN(CCC(CNC(=O)Nc2cc(Cl)cc(Cl)c2)c2ccc(Cl)c(Cl)c2)C1 (centres unmarked) [Example 292] |
| 51 to 500 | O=C(NCC(CCNCCc1ccc(O)cc1)c1ccc(Cl)c(Cl)c1)Nc1cccc(C(F)(F)F)c1 (centres unmarked) [Example 293] |

| Ki [nM] | SMILES |
| --- | --- |
| 501 to 2500 | O=C(NCC(CCNCCc1c[nH]c2ccccc12)c1ccc(Cl)c(Cl)c1)Nc1cc(Cl)cc(Cl)c1 (centres unmarked) [Example 294] |
| 501 to 2500 | O=C(NCC(CCNCc1ccc2c(c1)OCO2)c1ccc(Cl)c(Cl)c1)Nc1cc(Cl)cc(Cl)c1 (centres unmarked) [Example 295] |
| 501 to 2500 | O=C(NCC(CCNCc1ccc2c(c1)OCO2)c1ccc(Cl)c(Cl)c1)Nc1ccc(Cl)c(Cl)c1 (centres unmarked) [Example 296] |
| 501 to 2500 | Cn1cnc(CCNCCC(CNC(=O)Nc2cc(Cl)cc(Cl)c2)c2ccc(Cl)c(Cl)c2)c1 (centres unmarked) [Example 297] |
| 501 to 2500 | CN1CCCC1CCNCCC(CNC(=O)Nc1ccc(Cl)c(Cl)c1)c1ccc(Cl)c(Cl)c1 (centres unmarked) [Example 298] |
| 501 to 2500 | O=C(NCC(CCN1CCCC1)c1ccc(Cl)c(Cl)c1)Nc1cccc(C(F)(F)F)c1 (centres unmarked) [Example 299] |
| 501 to 2500 | CN1CCCC1CCNCCC(CNC(=O)Nc1cccc(C(F)(F)F)c1)c1ccc(Cl)c(Cl)c1 (centres unmarked) [Example 300] |
| 501 to 2500 | CN1CCCC1CCNCCC(CNC(=O)Nc1cc(Cl)cc(Cl)c1)c1ccc(Cl)c(Cl)c1 (centres unmarked) [Example 301] |
| 501 to 2500 | O=C(NCC(CCNCc1ccc2c(c1)OCO2)c1ccc(Cl)c(Cl)c1)Nc1cccc(C(F)(F)F)c1 (centres unmarked) [Example 302] |
| 501 to 2500 | Cn1cnc(CCNCCC(CNC(=O)Nc2cccc(C(F)(F)F)c2)c2ccc(Cl)c(Cl)c2)c1 (centres unmarked) [Example 303] |
| 501 to 2500 | CN(C)CCCNCCC(CNC(=O)Nc1cc(Cl)cc(Cl)c1)c1ccc(Cl)c(Cl)c1 (centres unmarked) [Example 304] |
| 501 to 2500 | CN(C)CCCNCCC(CNC(=O)Nc1ccc(Cl)c(Cl)c1)c1ccc(Cl)c(Cl)c1 (centres unmarked) [Example 305] |
| 501 to 2500 | CN(C)C1CCN(CCC(CNC(=O)Nc2cccc(C(F)(F)F)c2)c2ccc(Cl)c(Cl)c2)C1 (centres unmarked) [Example 306] |
| 501 to 2500 | O=C(NCC(CCN1CCNCC1)c1ccc(Cl)c(Cl)c1)Nc1ccc(Cl)c(Cl)c1 (centres unmarked) [Example 307] |
| 501 to 2500 | O=C(NCC(CCN1CCNCC1)c1ccc(Cl)c(Cl)c1)Nc1cc(Cl)cc(Cl)c1 (centres unmarked) [Example 308] |
| 501 to 2500 | O=C(NCC(CCN1CCNCC1)c1ccc(Cl)c(Cl)c1)Nc1cccc(C(F)(F)F)c1 (centres unmarked) [Example 309] |
| 501 to 2500 | CN(C)CCCNCCC(CNC(=O)Nc1cccc(C(F)(F)F)c1)c1ccc(Cl)c(Cl)c1 (centres unmarked) [Example 310] |
| 51 to 500 | O=C(NCC(CCN1CCC(N2CCCCC2)CC1)c1ccc(Cl)c(Cl)c1)Nc1cccc(Br)c1 (centres unmarked) [Example 312] |
| 51 to 500 | O=C(NCC(CCNC1CCC1)c1ccc(Cl)c(Cl)c1)Nc1cc(C(F)(F)F)cc(C(F)(F)F)c1 (centres unmarked) [Example 314] |
| 51 to 500 | O=C(NCC(CCN1CCC(N2CCCCC2)CC1)c1ccc(Cl)c(Cl)c1)Nc1ccc([N+](=O)O)cc1 (centres unmarked) [Example 315] |
| 501 to 2500 | CCNC(=O)NC1CCN(CCC(CNC(=O)Nc2cc(Cl)cc(Cl)c2)c2ccc(Cl)c(Cl)c2)C1 (centres unmarked) [Example 316] |
| 501 to 2500 | O=C(NCC(CCN1CCC(N2CCCCC2)CC1)c1ccc(Cl)c(Cl)c1)Nc1cccc([N+](=O)[O-])c1 (centres unmarked) [Example 317] |
| 501 to 2500 | O=C(NCC(CCNC1CCNC1)c1ccc(Cl)c(Cl)c1)Nc1cc(C(F)(F)F)cc(C(F)(F)F)c1 (centres unmarked) [Example 318] |
| 501 to 2500 | O=C(NCC(CCNCc1ccc2c(c1)OCO2)c1ccc(Cl)c(Cl)c1)Nc1cc(C(F)(F)F)cc(C(F)(F)F)c1 (centres unmarked) [Example 319] |
| 501 to 2500 | O=C(NCC(CCNCCc1c[nH]c2ccccc12)c1ccc(Cl)c(Cl)c1)Nc1cc(C(F)(F)F)cc(C(F)(F)F)c1 (centres unmarked) [Example 320] |

| Ki [nM] | SMILES |
| --- | --- |
| 501 to 2500 | CCNC(=O)NC1CCN(CCC(CNC(=O)Nc2cc(Cl)cc(Cl)c2)c2ccc(Cl)cc2)C1 (centres unmarked) [Example 321] |
| 501 to 2500 | NC1CCN(CCC(CNC(=O)Nc2cc(Cl)cc(Cl)c2)c2ccc(Cl)c(Cl)c2)CC1 (centres unmarked) [Example 322] |
| 501 to 2500 | CCNC(=O)NC1CCN(CCC(CNC(=O)Nc2cc(Cl)cc(Cl)c2)c2ccc(Cl)c(Cl)c2)CC1 (centres unmarked) [Example 323] |
| 501 to 2500 | Cc1ccc(C(CCN2CCC(N)CC2)CNC(=O)Nc2cc(Cl)cc(Cl)c2)cc1 (centres unmarked) [Example 324] |
| 501 to 2500 | O=C(NCC(CCN1CCC(N2CCCCC2)CC1)c1ccc(Cl)c(Cl)c1)Nc1ccc(Cl)cc1 (centres unmarked) [Example 325] |
| 501 to 2500 | O=C(NCC(CCN1CCC(N2CCCCC2)CC1)c1ccc(Cl)c(Cl)c1)Nc1ccc(Br)cc1 (centres unmarked) [Example 326] |
| 501 to 2500 | CCNC(=O)NC1CCN(CCC(CNC(=O)Nc2cc(Cl)cc(Cl)c2)c2ccc(C)cc2)CC1 (centres unmarked) [Example 327] |
| 0.4 to 50 | O=C(NCC(CCNC1CCCC1)c1ccc(Cl)c(Cl)c1)Nc1cc(C(F)(F)F)cc(C(F)(F)F)c1 (centres unmarked) [Example 328] |
| 51 to 500 | O=C(NCC(CCN1CCCC1)c1ccc(Cl)cc1)Nc1cc(C(F)(F)F)cc(C(F)(F)F)c1 (centres unmarked) [Example 329] |
| 51 to 500 | O=C(NCC(CCNCCc1c[nH]c2ccccc12)c1ccc(Cl)cc1)Nc1cc(C(F)(F)F)cc(C(F)(F)F)c1 (centres unmarked) [Example 330] |
| 51 to 500 | COc1ccc(C(CCNCCc2c[nH]c3ccccc23)CNC(=O)Nc2cc(C(F)(F)F)cc(C(F)(F)F)c2)cc1 (centres unmarked) [Example 331] |
| 51 to 500 | CN(C)CCNCCC(CNC(=O)Nc1cc(C(F)(F)F)cc(C(F)(F)F)c1)c1ccc(Cl)c(Cl)c1 (centres unmarked) [Example 332] |
| 51 to 500 | O=C(NCC(CCNCCc1c[nH]c2ccccc12)c1cccc(Cl)c1)Nc1cc(C(F)(F)F)cc(C(F)(F)F)c1 (centres unmarked) [Example 333] |
| 501 to 2500 | O=C(NCC(CCN1CCCC1)c1cccc(Cl)c1)Nc1cc(C(F)(F)F)cc(C(F)(F)F)c1 (centres unmarked) [Example 334] |
| 501 to 2500 | COc1ccc(C(CCN2CCCC2)CNC(=O)Nc2cc(C(F)(F)F)cc(C(F)(F)F)c2)cc1 (centres unmarked) [Example 335] |
| 501 to 2500 | Cc1cccc(C(CCNCCc2c[nH]c3ccccc23)CNC(=O)Nc2cc(C(F)(F)F)cc(C(F)(F)F)c2)c1 (centres unmarked) [Example 336] |
| 501 to 2500 | CN(C)CCCNCCC(CNC(=O)Nc1cc(C(F)(F)F)cc(C(F)(F)F)c1)c1ccc(Cl)cc1 (centres unmarked) [Example 337] |
| 501 to 2500 | Cc1cccc(C(CCN2CCCC2)CNC(=O)Nc2cc(C(F)(F)F)cc(C(F)(F)F)c2)c1 (centres unmarked) [Example 338] |
| 501 to 2500 | O=S(=O)(NCC(CCNCCc1c[nH]c2ccccc12)c1cccc(F)c1)c1ccc(Cl)c(Cl)c1 (centres unmarked) [Example 339] |
| 501 to 2500 | O=S(=O)(NCC(CCNCCc1c[nH]c2ccccc12)c1cccc(Cl)c1)c1ccc(Cl)c(Cl)c1 (centres unmarked) [Example 340] |
| 501 to 2500 | O=C(NCC(CCN1CCCC1)c1cccc(F)c1)Nc1cc(C(F)(F)F)cc(C(F)(F)F)c1 (centres unmarked) [Example 341] |
| 501 to 2500 | O=S(=O)(NCC(CCNCCc1c[nH]c2ccccc12)c1ccc(Cl)cc1)c1ccc(Cl)c(Cl)c1 (centres unmarked) [Example 342] |
| 501 to 2500 | O=C(NCC(CCNCCc1c[nH]c2ccccc12)c1cccc(F)c1)Nc1cc(C(F)(F)F)cc(C(F)(F)F)c1 (centres unmarked) [Example 343] |
| 501 to 2500 | CN(C)CCCNCCC(CNC(=O)Nc1cc(C(F)(F)F)cc(C(F)(F)F)c1)c1cccc(Cl)c1 (centres unmarked) [Example 344] |

Reference: patent US7034056B2, “Aryl and biaryl compounds having MCH modulatory activity” (Pharmacopeia Drug Discovery, inc., priority 2001, dated 2006)
